Measured values as given in the NIST ThermoML archive (doi:10.1007/s10765-007-0151-9).
Values joined by “and” are separate entries in the source; they are usually repeats but may differ in a detail not shown here. Identical values can stand only once.

Conditions: 101.33 kPa, Liquid, Pulse-echo method

[Ge] [germanium]
Conditions	speed of sound
1216 K	2690.9 m/s and 2689.9 m/s
1233 K	2690.8 m/s and 2691.1 m/s
1252 K	2689.5 m/s and 2696.2 m/s
1270 K	2692 m/s and 2695 m/s
1289 K	2690.8 m/s and 2700.4 m/s
1307 K	2690.6 m/s and 2695 m/s
1352 K	2673.6 m/s and 2678.4 m/s
1398 K	2662.8 m/s and 2666.3 m/s
1443 K	2652.5 m/s and 2654.4 m/s

[Pb] [lead]
Conditions	speed of sound [m/s]
610 K	1834
626 K	1810.5
678 K	1790.3
703 K	1784
787 K	1769.8
814 K	1749
897 K	1729.8
1078 K	1688

[Si] [silicon]
Conditions	speed of sound [m/s]
1723 K	3916.1
1748 K	3929
1755 K	3945.9
1789 K	3973.3
1795 K	3969
1823 K	3976.3
1852 K	4003
1889 K	4020

[Sn] [tin]
Conditions	speed of sound [m/s]
608 K	2470
804 K	2408
814 K	2416
919 K	2379
1012 K	2366
1025 K	2332
1218 K	2306
1453 K	2234
1463 K	2242
